We go through 2 molecules from US20170151226A1, “Treatment of Breast Cancer with Liposomal Irinotecan” (priority 2014, published 2017).

One data set deals with TNBC LM2-4-luc cells. Put plainly: TNBC LM2-4 mouse model of spontaneous metastasis. Type of data set: in vivo, SCID mice. The conditions noted are these: nal-IRI 10 mg/kg salt, nonliposomal irinotecan 50 mg/kg salt, IV every 7 days. An excerpt: 42 female SCID mice were inoculated with TNBC LM2-4-luc cells in their lower right inguinal mammary fat pad. […] Post primary tumor resection, bioluminescence imaging (BLI), (BLI, Xenogen, Perkin Elmer) was used to monitor metastasis formulation. […] Animals were monitored 2-3 times per week using BLI and at the study endpoint using a 1T MRI (M3, Aspect Imaging).

The conditions of data set [1]: 5-day regimen; cited from earlier work.

As for `CCc1c2c(nc3ccc(OC(=O)N4CCC(N5CCCCC5)CC4)cc13)-c1cc3c(c(=O)n1C2)COC(=O)[C@]3(O)CC` [irinotecan], in the data set on TNBC LM2-4-luc cells (day 12), the “Metastatic burden, median bioluminescence flux” value was 2.1×10^9. Further, the Median survival with TNBC LM2-4-luc cells is reported as 14 days.

Consider `C[C@@H](O)[C@@H]1NC(=O)[C@H](CCCCN)NC(=O)[C@@H](Cc2c[nH]c3ccccc23)NC(=O)[C@H](Cc2ccccc2)NC(=O)[C@@H](NC(=O)[C@H](N)Cc2ccccc2)CSSC[C@@H](C(=O)N[C@H](CO)[C@@H](C)O)NC1=O` [octreotide], for which the Maximum tolerated dose in data set [1] is recorded as 2000 micrograms three times daily.
